Measured values from patent publication US20120142646A1, “Novel Compounds 621” (priority 2006, published 2012).
Where a name gives a salt, the structure may show the parent alone.

These compounds were tested against T1, Adrenergic β2 (Homo sapiens, UniProt P07550) (assay: Adrenergic β2 mediated cAMP production in H292 cells (AlphaScreen cAMP detection)). Settings: Intrinsic Activity as a fraction relative to the maximum activity determined for formoterol.
T1 construct: Adherent H292 cells were removed from tissue culture flasks; endogenous in cells; host or cells: H292 cells
T1 sequence (P07550 whole entry): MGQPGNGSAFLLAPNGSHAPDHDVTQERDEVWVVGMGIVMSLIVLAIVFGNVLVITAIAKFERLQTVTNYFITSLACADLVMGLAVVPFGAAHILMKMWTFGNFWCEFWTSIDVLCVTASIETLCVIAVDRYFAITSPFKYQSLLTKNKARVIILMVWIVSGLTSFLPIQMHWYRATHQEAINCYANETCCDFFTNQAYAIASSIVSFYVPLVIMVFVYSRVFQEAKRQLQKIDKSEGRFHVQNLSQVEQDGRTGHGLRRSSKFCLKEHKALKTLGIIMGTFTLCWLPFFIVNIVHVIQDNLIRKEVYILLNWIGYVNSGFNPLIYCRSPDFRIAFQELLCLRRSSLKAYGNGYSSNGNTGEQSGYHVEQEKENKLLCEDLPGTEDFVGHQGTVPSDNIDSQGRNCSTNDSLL
Assay type: cell-based
Set-up: key to β2 Int Act: fraction of formoterol maximum activity (formoterol = 1)
Procedure: Adrenergic β2 Mediated cAMP Production
H292 cells were grown in 225 cm2 flasks incubator at 37° C., 5% CO2 in RPMI medium containing, 10% (v/v) FBS (foetal bovine serum) and 2 mM L-glutamine.
Adherent H292 cells were removed from tissue culture flasks by treatment with Accutase™ cell detachment solution for 15 minutes. Flasks were incubated for 15 minutes in a humidified incubator at 37° C., 5% CO2. Detached cells were re-suspended in RPMI media (containing 10% (v/v) FBS and 2 mM L-glutamine) at 1×10^6 cells per mL. 10000 cells in 100 μL were added to each well of a tissue-culture-treated 96-well plate and the cells incubated overnight in a humidified incubator at 37° C., 5% CO2. The culture media was removed and cells were washed twice with 100 μL assay buffer and replaced with 50 μL assay buffer (HBSS solution containing 10 mM HEPES pH7.4 and 5 mM glucose). Cells were rested at room temperature for 20 minutes after which time 25 μL of rolipram (1.2 mM made up in assay buffer containing 2.4% (v/v) dimethylsulphoxide) was added. Cells were incubated with rolipram for 10 minutes after which time test compounds were added and the cells were incubated for 60 minutes at room temperature. The final rolipram concentration in the assay was 300 μM and final vehicle concentration was 1.6% (v/v) dimethylsulphoxide. The reaction was stopped by removing supernatants, washing once with 100 μL assay buffer and replacing with 50 μL lysis buffer. The cell monolayer was frozen at −80° C. for 30 minutes (or overnight).
AlphaScreen™ cAMP Detection
The concentration of cAMP (cyclic adenosine monophosphate) in the cell lysate was determined using AlphaScreen™ methodology. The frozen cell plate was thawed for 20 minutes on a plate shaker then 10 μL of the cell lysate was transferred to a 96-well white plate. 40 μL of mixed AlphaScreen™ detection beads pre-incubated with biotinylated cAMP, was added to each well and the plate incubated at room temperature for 10 hours in the dark. The AlphaScreen™ signal was measured using an EnVision spectrophotometer (Perkin-Elmer Inc.) with the recommended manufacturer's settings. cAMP concentrations were determined by reference to a calibration curve determined in the same experiment using standard cAMP concentrations. Concentration response curves for agonists were constructed and data was fitted to a four parameter logistic equation to determine both the pEC50 and Intrinsic Activity. Intrinsic Activity was expressed as a fraction relative to the maximum activity determined for formoterol in each experiment.

Row | Structure (SMILES) | β2 Int Act
1 | O=C1COc2c(CCNCCN(C(=O)CCNCCc3ccccc3)C3CCCCC3)ccc(O)c2N1 [Example 23, N-Cyclohexyl-N-(2-(2-(5-hydroxy-3-oxo-3,4-dihydro-2H-benzo[b][1,4]oxazin-8-yl)ethylamino)ethyl)-3-(phenethylamino)propanamide bis(trifluoroacetate)] | 0.79
2 | O=C(CCNCCc1cccc(F)c1)N(CCNCCc1ccc(O)c2[nH]c(=O)ccc12)C1CCCCCC1 [Example 5, N-Cycloheptyl-3-(3-fluorophenethylamino)-N-(2-(2-(8-hydroxy-2-oxo-1,2-dihydroquinolin-5-yl)ethylamino)ethyl)propanamide bis(trifluoroacetate)] | 0.82
3 | O=C(CCNCCc1ccc(F)cc1)N(CCNCCc1ccc(O)c2[nH]c(=O)ccc12)C1CCCCCC1 [Example 6, N-Cycloheptyl-3-(4-fluorophenethylamino)-N-(2-(2-(8-hydroxy-2-oxo-1,2-dihydroquinolin-5-yl)ethylamino)ethyl)propanamide bis(trifluoroacetate)] | 0.65
4 | O=C(CCNCCc1ccccc1)N(CCNCCc1ccc(O)c2[nH]c(=O)ccc12)C1CCCCCC1 [Example 7, N-Cycloheptyl-N-(2-(2-(8-hydroxy-2-oxo-1,2-dihydroquinolin-5-yl)ethylamino)ethyl)-3-(phenethylamino)propanamide bis(trifluoroacetate)] | 0.76
5 | O=C(CCNCCc1ccc(F)c(F)c1)N(CCNCCc1ccc(O)c2[nH]c(=O)ccc12)C1CCCCC1 [Example 16, N-Cyclohexyl-3-(3,4-difluorophenethylamino)-N-(2-(2-(8-hydroxy-2-oxo-1,2-dihydroquinolin-5-yl)ethylamino)ethyl)propanamide bis(trifluoroacetate)] | 0.85
6 | O=C1COc2c(CCNCCN(C(=O)CCOCCc3ccc(F)cc3)C3CCCCC3)ccc(O)c2N1 [Example 75, N-Cyclohexyl-3-(4-fluorophenethoxy)-N-(2-(2-(5-hydroxy-3-oxo-3,4-dihydro-2H-benzo[b][1,4]oxazin-8-yl)ethylamino)ethyl)propanamide trifluoroacetate] | 0.96
7 | O=C(CCNCCc1cccc(F)c1F)N(CCNCCc1ccc(O)c2[nH]c(=O)ccc12)C1CCCCC1 [Example 18, N-Cyclohexyl-3-(2,3-difluorophenethylamino)-N-(2-(2-(8-hydroxy-2-oxo-1,2-dihydroquinolin-5-yl)ethylamino)ethyl)propanamide bis(trifluoroacetate)] | 0.95
8 | Cc1cc(CCNCCC(=O)N(CCNCCc2ccc(O)c3c2OCC(=O)N3)C2CCCCC2)ccc1F [Example 40, N-Cyclohexyl-3-(4-fluoro-3-methylphenethylamino)-N-(2-(2-(5-hydroxy-3-oxo-3,4-dihydro-2H-benzo[b][1,4]oxazin-8-yl)ethylamino)ethyl)propanamide bis(trifluoroacetate)] | 0.96
9 | Cl.O=C(CCOCCc1ccccc1F)N(CCNCCc1ccc(O)c2[nH]c(=O)ccc12)C1CCCCC1 [Example 73, N-Cyclohexyl-3-(2-fluorophenethoxy)-N-(2-(2-(8-hydroxy-2-oxo-1,2-dihydroquinolin-5-yl)ethylamino)ethyl)propanamide hydrochloride] | 0.94
10 | C[C@H](C1CCCCC1)N(CCNCCc1ccc(O)c2c1OCC(=O)N2)C(=O)CCNCCc1ccccc1 [Example 61, (R)—N-(1-Cyclohexylethyl)-N-(2-(2-(5-hydroxy-3-oxo-3,4-dihydro-2H-benzo[b][1,4]oxazin-8-yl)ethylamino)ethyl)-3-(phenethylamino)propanamide bis(trifluoroacetate)] | 0.84
11 | O=C1COc2c(CCNCCN(C(=O)CCNCCc3ccc(Cl)c(Cl)c3)C3CCCCCC3)ccc(O)c2N1 [Example 26, N-Cycloheptyl-3-(3,4-dichlorophenethylamino)-N-(2-(2-(5-hydroxy-3-oxo-3,4-dihydro-2H-benzo[b][1,4]oxazin-8-yl)ethylamino)ethyl)propanamide bis(trifluoroacetate)] | 0.74
12 | CCCC[C@@H](C)N(CCNCCc1ccc(O)c2c1OCC(=O)N2)C(=O)CCNCCc1cc(F)ccc1C [Example 57, (R)-3-(5-Fluoro-2-methylphenethylamino)-N-(hexan-2-yl)-N-(2-(2-(5-hydroxy-3-oxo-3,4-dihydro-2H-benzo[b][1,4]oxazin-8-yl)ethylamino)ethyl)propanamide bis(trifluoroacetate)] | 0.91
13 | O=C1COc2c(CCNCCN(C(=O)CCNCCc3ccc(Cl)cc3Cl)C3CCCCC3)ccc(O)c2N1 [Example 31, N-Cyclohexyl-3-(2,4-dichlorophenethylamino)-N-(2-(2-(5-hydroxy-3-oxo-3,4-dihydro-2H-benzo[b][1,4]oxazin-8-yl)ethylamino)ethyl)propanamide bis(trifluoroacetate)] | 0.94
14 | O=C1COc2c(CCNCCN(C(=O)CCNCCc3ccc(F)c(Cl)c3)C3CCCCC3)ccc(O)c2N1 [Example 37, 3-(3-Chloro-4-fluorophenethylamino)-N-cyclohexyl-N-(2-(2-(5-hydroxy-3-oxo-3,4-dihydro-2H-benzo[b][1,4]oxazin-8-yl)ethylamino)ethyl)propanamide bis(trifluoroacetate)] | 0.89
15 | Cc1ccc(F)c(CCNCCC(=O)N(CCNCCc2ccc(O)c3c2OCC(=O)N3)C2CCCCC2)c1 [Example 33, N-Cyclohexyl-3-(2-fluoro-5-methylphenethylamino)-N-(2-(2-(5-hydroxy-3-oxo-3,4-dihydro-2H-benzo[b][1,4]oxazin-8-yl)ethylamino)ethyl)propanamide bis(trifluoroacetate)] | 0.9
16 | O=C1COc2c(CCNCCN(C(=O)CCNCCc3cccc(Cl)c3)C3CCCCC3)ccc(O)c2N1 [Example 27, 3-(3-Chlorophenethylamino)-N-cyclohexyl-N-(2-(2-(5-hydroxy-3-oxo-3,4-dihydro-2H-benzo[b][1,4]oxazin-8-yl)ethylamino)ethyl)propanamide bis(trifluoroacetate)] | 0.89
17 | CCCCN(CCNCCc1ccc(O)c2[nH]c(=O)ccc12)C(=O)CCOCCc1ccccc1 [Example 1, N-Butyl-N-(2-(2-(8-hydroxy-2-oxo-1,2-dihydroquinolin-5-yl)ethylamino)ethyl)-3-phenethoxypropanamide hydrochloride] | 0.9
18 | O=C1COc2c(CCNCCN(C(=O)CCNCCc3cccc(Cl)c3)C3CCCCCC3)ccc(O)c2N1 [Example 68, 3-(3-Chlorophenethylamino)-N-cycloheptyl-N-(2-(2-(5-hydroxy-3-oxo-3,4-dihydro-2H-benzo[b][1,4]oxazin-8-yl)ethylamino)ethyl)propanamide bis(trifluoroacetate)] | 0.93
19 | O=C1COc2c(CCNCCN(C(=O)CCOCCc3cccc(Cl)c3)C3CCCCC3)ccc(O)c2N1 [Example 77, 3-(3-Chlorophenethoxy)-N-cyclohexyl-N-(2-(2-(5-hydroxy-3-oxo-3,4-dihydro-2H-benzo[b][1,4]oxazin-8-yl)ethylamino)ethyl)propanamide trifluoroacetate] | 0.97
20 | O=C1COc2c(CCNCCN(C(=O)CCNCCc3ccc(Cl)cc3)C3CCCCCC3)ccc(O)c2N1 [Example 63, 3-(4-Chlorophenethylamino)-N-cycloheptyl-N-(2-(2-(5-hydroxy-3-oxo-3,4-dihydro-2H-benzo[b][1,4]oxazin-8-yl)ethylamino)ethyl)propanamide bis(trifluoroacetate)] | 0.79
21 | O=C(CCNCCc1cccc(-c2ccccc2)c1)N(CCNCCc1ccc(O)c2[nH]c(=O)ccc12)C1CCCCCC1 [Example 12, 3-(2-(Biphenyl-3-yl)ethylamino)-N-cycloheptyl-N-(2-(2-(8-hydroxy-2-oxo-1,2-dihydroquinolin-5-yl)ethylamino)ethyl)propanamide bis(trifluoroacetate)] | 0.67
22 | O=C1COc2c(CCNCCN(C(=O)CCNCCc3ccc(F)c(F)c3)C3CCCCC3)ccc(O)c2N1 [Example 42, N-Cyclohexyl-3-(3,4-difluorophenethylamino)-N-(2-(2-(5-hydroxy-3-oxo-3,4-dihydro-2H-benzo[b][1,4]oxazin-8-yl)ethylamino)ethyl)propanamide bis(trifluoroacetate)] | 0.9
23 | O=C(CCNCCc1cc(F)cc(F)c1)N(CCNCCc1ccc(O)c2[nH]c(=O)ccc12)C1CCCCCC1 [Example 10, N-Cycloheptyl-3-(3,5-difluorophenethylamino)-N-(2-(2-(8-hydroxy-2-oxo-1,2-dihydroquinolin-5-yl)ethylamino)ethyl)propanamide bis(trifluoroacetate)] | 0.85
